From patent US20260209152A1, “Substituted Hydroxystilbene Compounds and Derivatives, Synthesis and Uses Thereof” (Kynan Duke IP, LLC, priority 2019, published 2026)
Where two headings read alike, the source gives them in different places.

Assays:
Assay in all cases: CellTiter Glo cell viability assay
Type in all cases: cell-based, human
Liver HepG2 = details: Homo sapiens
Experimental: (§1) 1.7*10^3 cells/well were seeded in quadruplicates in 96-well plate after plating. Drugs were added at 5 μM and 2-fold dilutions over 18 concentrations (0.000038146-5 […] range) to generate a dose-response curve. Cell growth was assessed on day 1, 3 and 5 after drug treatments using the CellTiter Glo Luminescence Cell Viability Assay (Promega) according to manufacturer's protocol. Thermo Scientific Varioskan LUX Multimode Microplate instrument was used for plate reading. Data are expressed as mean luminescence (arbitrary units) ±S.D.
(§2) Cell Viability Assays were employed to determine the concentration of Compound 1 (KYN-001) and analogues where the response is reduced by half. For each treatment of cancer cells, 1, 2, 5, 10 and 20 μM solutions of compounds were applied. GraphPad Prism 7 software was used to fit dose response curves. Relative Luminescence Units were plotted against the log values of the doses used and the nonlinear regression model was used for data analysis.
(§3) The protocol for cell proliferation was optimized for Compound 8 (KYN-119) to enable a more accurate assessment of its low IC50 value. In this protocol, 18 dosages (2 fold dilutions ranging from 0.000038146 to 5 μM) were applied to cells seeded in 96-well plates, and Luminescence was measured after 1, 3 and 5 days upon treatments.

Lung NCI-H2126 = details: Homo sapiens
Experimental: as §1, §2, §3

Lung NCI-H1573 = details: Homo sapiens
Experimental: as §1, §2, §3

Bladder UMUC_3 = details: Homo sapiens
Experimental: as §1, §2, §3

Bladder SCABER = details: Homo sapiens
Experimental: as §1, §2, §3

Tongue UPCI: SCC090 = details: Homo sapiens
Experimental: as §1, §2, §3

Pancreatic BxPC3 = details: Homo sapiens
Experimental: as §1, §2, §3

[1] = test system: Hypo-pharynx UPCI: SCC152; details: Homo sapiens
Experimental: as §1, §2, §3

Osteosarcomas SAOS-2 = details: Homo sapiens
Experimental: as §1, §2, §3

Pharynx DETROIT = details: Homo sapiens
Experimental: as §1, §2, §3

Liver SNU-398 = details: Homo sapiens
Experimental: as §1, §2, §3

Pancreatic HPAFII = details: Homo sapiens
Experimental: as §1, §2, §3

Bladder HT-1197 = details: Homo sapiens
Experimental: as §1, §2, §3

Pancreatic PANC-1 = details: Homo sapiens
Experimental: as §1, §2, §3

Liver SNU-423 = details: Homo sapiens
Experimental: as §1, §2, §3

Rhabomyosarcoma TE 159.T = details: Homo sapiens, 72 h; 3 Days of treatment; 18 2-fold dilutions 5-0.00003 μM; read-out: Average IC50
Experimental: as §1, §2, §3

Bladder T24 = details: Homo sapiens
Experimental: as §1, §2, §3

Kidney Caki-1 = details: Homo sapiens
Experimental: as §1, §2, §3

Ewing's Sarcoma HTB-166 = details: Homo sapiens
Experimental: as §1, §2, §3

Pharynx FADU = details: Homo sapiens
Experimental: as §1, §2, §3

Kidney Caki-2 = details: Homo sapiens
Experimental: as §1, §2, §3

Tongue SCC-4 = details: Homo sapiens
Experimental: as §1, §2, §3

[2] = HepG2, Hep G2/HB-8065, 11 dilutions 3-0.00001 μM, read-out: IC50
[3] = NCI-H2126/CCL-256, 11 dilutions 3-0.00001 μM, read-out: IC50
[4] = NCI-H1573/CRL-5877, 11 dilutions 3-0.00001 μM, read-out: IC50
[5] = UMUC3, UM-UC-3/CRL-1749, 11 dilutions 3-0.00001 μM, read-out: IC50
[6] = SCaBER/HTB-3, 11 dilutions 3-0.00001 μM, read-out: IC50
[7] = 72 h, 3 Days of treatment, 18 2-fold dilutions 5-0.00003 μM, read-out: Average IC50
[8] = UPCI: SCC090/CRL-3239, 11 dilutions 3-0.00001 μM, read-out: IC50
[9] = BxPC-3/CRL-1687, 11 dilutions 3-0.00001 μM, read-out: IC50
[10] = UPCI: SCC152/CRL-3240, 11 dilutions 3-0.00001 μM, read-out: IC50
[11] = Saos-2/HTB-85, 11 dilutions 3-0.00001 μM, read-out: IC50
[12] = Detroit 562/CCL-138, 11 dilutions 3-0.00001 μM, read-out: IC50
[13] = SNU-398/CRL-2233, 11 dilutions 3-0.00001 μM, read-out: IC50
[14] = HPAF-II/CRL-1997, 11 dilutions 3-0.00001 μM, read-out: IC50
[15] = HT1197, HT-1197/CRL-1473, 11 dilutions 3-0.00001 μM, read-out: IC50
[16] = PANC-1/CRL-1469, 11 dilutions 3-0.00001 μM, read-out: IC50
[17] = SNU-423/CRL-2238, 11 dilutions 3-0.00001 μM, read-out: IC50
[18] = T24/HTB-4, 11 dilutions 3-0.00001 μM, read-out: IC50
[19] = Caki-1/HTB-46, 11 dilutions 3-0.00001 μM, read-out: IC50
[20] = RD-ES/HTB-166, 11 dilutions 3-0.00001 μM, read-out: IC50
[21] = Fadu/HTB-43, 11 dilutions 3-0.00001 μM, read-out: IC50
[22] = Caki-2/HTB-47, 11 dilutions 3-0.00001 μM, read-out: IC50
[23] = SCC-4/CRL-1624, 11 dilutions 3-0.00001 μM, read-out: IC50

COc1cc(/C=C/c2cc(O)cc(OC)c2CC=C(C)C)ccc1O [Compound 1, (E)-3-(4-hydroxy-3-methoxystyryl)-5-methoxy-4-(3-methylbut-2-en-1-yl)phenol]
IC50 (Liver HepG2; HepG2, 72 h, 3 Days of treatment, 18 2-fold dilutions 5-0.00003 μM, read-out: Average IC50): 212 nM | IC50 (Liver HepG2; [2]): 577 nM | IC50 (Lung NCI-H2126; NCI-H2126, 72 h, 3 Days of treatment, 18 2-fold dilutions 5-0.00003 μM, read-out: Average IC50): 75.4 nM | IC50 (Lung NCI-H2126; [3]): 106 nM | IC50 (Lung NCI-H1573; NCI-H1573, 72 h, 3 Days of treatment, 18 2-fold dilutions 5-0.00003 μM, read-out: Average IC50): 217 nM | IC50 (Lung NCI-H1573; [4]): 273 nM | IC50 (Bladder UMUC_3; UMUC3, 72 h, 3 Days of treatment, 18 2-fold dilutions 5-0.00003 μM, read-out: Average IC50): 31.3 nM | IC50 (Bladder UMUC_3; [5]): 333 nM | IC50 (Bladder SCABER; SCaBER, 72 h, 3 Days of treatment, 18 2-fold dilutions 5-0.00003 μM, read-out: Average IC50): 33.7 nM | IC50 (Bladder SCABER; [6]): 65 nM | IC50 (Tongue UPCI: SCC090; [7]): 90.1 nM | IC50 (Tongue UPCI: SCC090; [8]): 0.9 nM | IC50 (Pancreatic BxPC3; BXPC-3, 72 h, 3 Days of treatment, 18 2-fold dilutions 5-0.00003 μM, read-out: Average IC50): 1060 nM | IC50 (Pancreatic BxPC3; [9]): 944 nM | IC50 [1, 7]: 46.3 nM | IC50 [1, 10]: 140 nM | IC50 (Osteosarcomas SAOS-2; SAOS-2, 72 h, 3 Days of treatment, 18 2-fold dilutions 5-0.00003 μM, read-out: Average IC50): 110 nM | IC50 (Osteosarcomas SAOS-2; [11]): 173 nM | IC50 (Pharynx DETROIT; [7]): 1170 nM | IC50 (Pharynx DETROIT; [12]): 131 nM | IC50 (Liver SNU-398; SNU-398, 72 h, 3 Days of treatment, 18 2-fold dilutions 5-0.00003 μM, read-out: Average IC50): 42.9 nM | IC50 (Liver SNU-398; [13]): 208 nM | IC50 (Pancreatic HPAFII; HPAF-II, 72 h, 3 Days of treatment, 18 2-fold dilutions 5-0.00003 μM, read-out: Average IC50): 1070 nM | IC50 (Pancreatic HPAFII; [14]): 417 nM | IC50 (Bladder HT-1197; HT1197, 72 h, 3 Days of treatment, 18 2-fold dilutions 5-0.00003 μM, read-out: Average IC50): 258 nM | IC50 (Bladder HT-1197; [15]): 108 nM | IC50 (Pancreatic PANC-1; PANC-1, 72 h, 3 Days of treatment, 18 2-fold dilutions 5-0.00003 μM, read-out: Average IC50): 107 nM | IC50 (Pancreatic PANC-1; [16]): 110 nM | IC50 (Liver SNU-423; SNU-423, 72 h, 3 Days of treatment, 18 2-fold dilutions 5-0.00003 μM, read-out: Average IC50): 33.8 nM | IC50 (Liver SNU-423; [17]): 203 nM | IC50 (Rhabomyosarcoma TE 159.T): 147 nM | IC50 (Bladder T24; [7]): 129 nM | IC50 (Bladder T24; [18]): 182 nM | IC50 (Kidney Caki-1; CAKI-1, 72 h, 3 Days of treatment, 18 2-fold dilutions 5-0.00003 μM, read-out: Average IC50): 103 nM | IC50 (Kidney Caki-1; [19]): 120 nM | IC50 (Ewing's Sarcoma HTB-166; [7]): 257 nM | IC50 (Ewing's Sarcoma HTB-166; [20]): 310 nM | IC50 (Pharynx FADU; FaDu, 72 h, 3 Days of treatment, 18 2-fold dilutions 5-0.00003 μM, read-out: Average IC50): 74.4 nM | IC50 (Pharynx FADU; [21]): 139 nM | IC50 (Kidney Caki-2; CAKI-2, 72 h, 3 Days of treatment, 18 2-fold dilutions 5-0.00003 μM, read-out: Average IC50): 1120 nM | IC50 (Kidney Caki-2; [22]): 426 nM | IC50 (Tongue SCC-4; SCC-4, 72 h, 3 Days of treatment, 18 2-fold dilutions 5-0.00003 μM, read-out: Average IC50): 100 nM | IC50 (Tongue SCC-4; [23]): 39.5 nM

CCOc1cc(O)cc(/C=C/c2ccc(O)c(O)c2)c1CC=C(C)C [Compound 20, (E)-4-(3-Ethoxy-5-hydroxy-2-(3-methylbut-2-en-1-yl)styryl)benzene-1,2-diol]
IC50 (Liver HepG2; [2]): 234 nM | IC50 (Lung NCI-H2126; [3]): 97 nM | IC50 (Lung NCI-H1573; [4]): 55.8 nM | IC50 (Bladder UMUC_3; [5]): 126 nM | IC50 (Bladder SCABER; [6]): 53.7 nM | IC50 (Tongue UPCI: SCC090; [8]): 47.8 nM | IC50 (Pancreatic BxPC3; [9]): 1410 nM | IC50 [1, 10]: 149 nM | IC50 (Osteosarcomas SAOS-2; [11]): 129 nM | IC50 (Pharynx DETROIT; [12]): 122 nM | IC50 (Liver SNU-398; [13]): 110 nM | IC50 (Pancreatic HPAFII; [14]): 638 nM | IC50 (Bladder HT-1197; [15]): 61.7 nM | IC50 (Pancreatic PANC-1; [16]): 41.6 nM | IC50 (Liver SNU-423; [17]): 119 nM | IC50 (Bladder T24; [18]): 111 nM | IC50 (Kidney Caki-1; [19]): 96.3 nM | IC50 (Ewing's Sarcoma HTB-166; [20]): 338 nM | IC50 (Pharynx FADU; [21]): 80.1 nM | IC50 (Kidney Caki-2; [22]): 302 nM | IC50 (Tongue SCC-4; [23]): 31.3 nM

CCOc1cc(O)cc(/C=C/c2ccc(NC=O)c(OC)c2)c1CC=C(C)C [Compound 28, (E)-N-(4-(3-Ethoxy-5-hydroxy-2-(3-methylbut-2-en-1-yl)styryl)-2-methoxyphenyl)formamide]
IC50 (Liver HepG2; [2]): 99.1 nM | IC50 (Lung NCI-H2126; [3]): 10.7 nM | IC50 (Lung NCI-H1573; [4]): 21.2 nM | IC50 (Bladder UMUC_3; [5]): 21.3 nM | IC50 (Bladder SCABER; [6]): 6 nM | IC50 (Tongue UPCI: SCC090; [8]): 56.1 nM | IC50 (Pancreatic BxPC3; [9]): 175 nM | IC50 [1, 10]: 20.5 nM | IC50 (Osteosarcomas SAOS-2; [11]): 23.3 nM | IC50 (Pharynx DETROIT; [12]): 11.4 nM | IC50 (Liver SNU-398; [13]): 32.7 nM | IC50 (Pancreatic HPAFII; [14]): 111 nM | IC50 (Bladder HT-1197; [15]): 12.2 nM | IC50 (Pancreatic PANC-1; [16]): 17.8 nM | IC50 (Liver SNU-423; [17]): 27.5 nM | IC50 (Bladder T24; [18]): 22.1 nM | IC50 (Kidney Caki-1; [19]): 7.2 nM | IC50 (Ewing's Sarcoma HTB-166; [20]): 65.1 nM | IC50 (Pharynx FADU; [21]): 11.8 nM | IC50 (Kidney Caki-2; [22]): 69.8 nM | IC50 (Tongue SCC-4; [23]): 3.1 nM
